Experimental data reported in ChEMBL document CHEMBL5291721, “A preclinical secondary pharmacology resource illuminates target-adverse drug reaction associations of marketed drugs” (Nat Commun, 2023).

Tests used:
[1] = biological target: T1, Muscarinic acetylcholine receptor M1 (Homo sapiens, UniProt P11229); assay type: functional
T1 sequence (P11229 whole entry): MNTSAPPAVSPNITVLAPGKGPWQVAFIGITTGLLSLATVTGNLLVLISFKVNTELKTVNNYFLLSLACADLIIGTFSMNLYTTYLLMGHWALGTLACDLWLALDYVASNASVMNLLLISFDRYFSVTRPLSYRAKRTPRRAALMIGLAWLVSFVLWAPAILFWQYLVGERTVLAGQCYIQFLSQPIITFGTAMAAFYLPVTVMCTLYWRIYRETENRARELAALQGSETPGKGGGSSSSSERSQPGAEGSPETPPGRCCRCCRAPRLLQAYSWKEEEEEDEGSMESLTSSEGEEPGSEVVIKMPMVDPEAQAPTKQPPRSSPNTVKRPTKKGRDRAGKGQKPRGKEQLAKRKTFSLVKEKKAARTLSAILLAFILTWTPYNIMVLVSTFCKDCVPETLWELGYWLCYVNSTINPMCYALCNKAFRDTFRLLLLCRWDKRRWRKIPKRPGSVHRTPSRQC

[2] = biological target: T2, Histamine H1 receptor (Homo sapiens, UniProt P35367); assay type: functional, cell-based
[3] = biological target: T3, Estrogen receptor (Homo sapiens, UniProt P03372); assay type: functional
T3 sequence (P03372 whole entry): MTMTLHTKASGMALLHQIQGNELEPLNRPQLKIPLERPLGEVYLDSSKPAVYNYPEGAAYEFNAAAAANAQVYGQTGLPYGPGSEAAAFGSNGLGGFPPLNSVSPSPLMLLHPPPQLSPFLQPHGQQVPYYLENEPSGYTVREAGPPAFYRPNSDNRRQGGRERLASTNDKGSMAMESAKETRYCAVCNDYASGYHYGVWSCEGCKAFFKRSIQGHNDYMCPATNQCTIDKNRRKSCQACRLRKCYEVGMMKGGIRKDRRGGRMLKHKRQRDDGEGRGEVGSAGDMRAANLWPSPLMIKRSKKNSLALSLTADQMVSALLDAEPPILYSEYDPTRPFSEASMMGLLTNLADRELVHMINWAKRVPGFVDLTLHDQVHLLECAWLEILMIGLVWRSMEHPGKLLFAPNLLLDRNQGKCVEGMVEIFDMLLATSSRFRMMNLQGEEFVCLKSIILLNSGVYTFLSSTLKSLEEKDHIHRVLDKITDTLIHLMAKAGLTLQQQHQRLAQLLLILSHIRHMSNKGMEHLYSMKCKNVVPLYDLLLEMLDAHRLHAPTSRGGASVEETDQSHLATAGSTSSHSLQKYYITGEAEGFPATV

[4] = biological target: T2, Histamine H1 receptor; assay type: functional, cell-based; remark: listed apart in the source
[5] = biological target: T4, Glucocorticoid receptor (Homo sapiens, UniProt P04150); assay type: functional
T4 sequence (P04150 whole entry): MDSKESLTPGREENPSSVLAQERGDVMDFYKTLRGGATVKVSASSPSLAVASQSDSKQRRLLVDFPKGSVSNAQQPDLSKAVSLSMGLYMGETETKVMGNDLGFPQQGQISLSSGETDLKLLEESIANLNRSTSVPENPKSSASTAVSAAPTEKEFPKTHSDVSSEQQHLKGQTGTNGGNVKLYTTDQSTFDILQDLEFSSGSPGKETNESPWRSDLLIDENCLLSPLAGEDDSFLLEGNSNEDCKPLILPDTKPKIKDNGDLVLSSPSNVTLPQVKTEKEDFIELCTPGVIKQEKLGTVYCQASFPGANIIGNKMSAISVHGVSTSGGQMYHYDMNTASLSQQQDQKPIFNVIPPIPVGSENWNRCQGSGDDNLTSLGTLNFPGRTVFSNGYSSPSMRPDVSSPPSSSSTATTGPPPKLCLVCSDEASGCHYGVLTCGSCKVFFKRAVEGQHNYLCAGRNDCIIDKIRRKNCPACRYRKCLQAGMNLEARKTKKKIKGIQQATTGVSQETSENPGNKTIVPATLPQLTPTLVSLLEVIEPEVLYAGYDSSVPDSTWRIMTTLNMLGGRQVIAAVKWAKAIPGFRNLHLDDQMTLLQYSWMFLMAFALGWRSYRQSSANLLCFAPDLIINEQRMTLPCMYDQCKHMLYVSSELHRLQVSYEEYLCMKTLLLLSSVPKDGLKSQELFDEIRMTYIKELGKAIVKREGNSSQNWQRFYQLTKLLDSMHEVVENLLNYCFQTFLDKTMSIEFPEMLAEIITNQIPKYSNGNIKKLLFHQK

[6] = biological target: T3, Estrogen receptor; assay type: functional; remark: listed apart in the source
[7] = biological target: T4, Glucocorticoid receptor; assay type: functional; remark: listed apart in the source
[8] = biological target: T5, Alpha-1A adrenergic receptor (Homo sapiens, UniProt P35348)
T5 sequence (P35348 whole entry): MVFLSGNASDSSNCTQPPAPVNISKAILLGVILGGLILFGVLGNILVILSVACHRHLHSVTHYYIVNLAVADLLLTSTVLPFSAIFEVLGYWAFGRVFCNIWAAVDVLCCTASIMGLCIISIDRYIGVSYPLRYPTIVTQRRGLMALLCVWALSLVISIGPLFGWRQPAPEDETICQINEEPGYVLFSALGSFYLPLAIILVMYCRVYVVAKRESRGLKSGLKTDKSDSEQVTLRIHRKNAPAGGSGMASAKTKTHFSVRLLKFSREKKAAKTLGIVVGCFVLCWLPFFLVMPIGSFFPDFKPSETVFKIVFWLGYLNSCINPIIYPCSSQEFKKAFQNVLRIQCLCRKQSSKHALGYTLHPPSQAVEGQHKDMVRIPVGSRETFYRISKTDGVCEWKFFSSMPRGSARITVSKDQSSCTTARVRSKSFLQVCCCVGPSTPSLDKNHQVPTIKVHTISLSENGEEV

[9] = biological target: D(1A) dopamine receptor (Homo sapiens, UniProt P21728)
[10] = biological target: T1, Muscarinic acetylcholine receptor M1
[11] = biological target: 5-hydroxytryptamine receptor 7 (Homo sapiens, UniProt P34969)
[12] = biological target: 5-hydroxytryptamine receptor 6 (Homo sapiens, UniProt P50406)
[13] = biological target: T5, Alpha-1A adrenergic receptor; remark: listed apart in the source
[14] = biological target: Estrogen receptor beta (Homo sapiens, UniProt Q92731)
[15] = biological target: Cannabinoid receptor 1 (Homo sapiens, UniProt P21554); assay type: functional
[16] = biological target: Gamma-aminobutyric acid type B receptor subunit 1 (Homo sapiens, UniProt Q9UBS5)
Note: assay procedure not described here.

Sequence of Cannabinoid receptor 1 (P21554 whole entry): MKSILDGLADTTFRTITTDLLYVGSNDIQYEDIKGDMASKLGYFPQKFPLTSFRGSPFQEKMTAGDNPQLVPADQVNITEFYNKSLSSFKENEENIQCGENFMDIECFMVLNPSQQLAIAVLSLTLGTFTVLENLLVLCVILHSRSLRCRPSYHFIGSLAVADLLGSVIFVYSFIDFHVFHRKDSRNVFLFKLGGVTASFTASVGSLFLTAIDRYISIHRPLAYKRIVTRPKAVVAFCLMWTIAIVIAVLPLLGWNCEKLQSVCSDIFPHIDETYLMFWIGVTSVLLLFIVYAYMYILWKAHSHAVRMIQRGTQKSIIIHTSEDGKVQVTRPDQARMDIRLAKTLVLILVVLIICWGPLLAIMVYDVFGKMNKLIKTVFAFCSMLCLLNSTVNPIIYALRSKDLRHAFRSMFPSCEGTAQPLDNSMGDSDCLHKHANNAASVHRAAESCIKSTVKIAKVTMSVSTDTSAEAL
T2 sequence (P35367 whole entry): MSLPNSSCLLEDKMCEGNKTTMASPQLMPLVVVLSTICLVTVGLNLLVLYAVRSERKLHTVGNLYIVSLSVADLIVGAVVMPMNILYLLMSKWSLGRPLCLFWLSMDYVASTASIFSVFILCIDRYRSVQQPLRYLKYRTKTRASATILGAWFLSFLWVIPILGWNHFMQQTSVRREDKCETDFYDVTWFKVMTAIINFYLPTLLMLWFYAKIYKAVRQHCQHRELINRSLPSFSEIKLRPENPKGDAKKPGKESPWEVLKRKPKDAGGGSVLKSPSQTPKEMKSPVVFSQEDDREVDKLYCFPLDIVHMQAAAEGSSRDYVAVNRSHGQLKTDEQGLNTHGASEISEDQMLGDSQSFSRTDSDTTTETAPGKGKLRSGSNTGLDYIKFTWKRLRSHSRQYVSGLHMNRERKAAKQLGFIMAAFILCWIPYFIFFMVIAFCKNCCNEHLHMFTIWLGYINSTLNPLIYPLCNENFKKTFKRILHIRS
Sequence of 5-hydroxytryptamine receptor 6 (P50406 whole entry): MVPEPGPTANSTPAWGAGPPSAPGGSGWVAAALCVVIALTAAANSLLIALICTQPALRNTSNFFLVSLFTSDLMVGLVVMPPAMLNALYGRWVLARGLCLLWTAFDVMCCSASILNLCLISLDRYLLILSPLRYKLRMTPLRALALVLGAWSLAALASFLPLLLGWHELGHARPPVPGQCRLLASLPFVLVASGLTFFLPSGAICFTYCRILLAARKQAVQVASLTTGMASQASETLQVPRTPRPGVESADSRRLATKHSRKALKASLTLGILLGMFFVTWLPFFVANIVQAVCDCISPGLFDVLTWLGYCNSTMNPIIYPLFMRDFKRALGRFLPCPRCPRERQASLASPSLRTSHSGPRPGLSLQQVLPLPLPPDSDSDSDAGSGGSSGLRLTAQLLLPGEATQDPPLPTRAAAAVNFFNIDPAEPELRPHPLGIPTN
Sequence of 5-hydroxytryptamine receptor 7 (P34969 whole entry): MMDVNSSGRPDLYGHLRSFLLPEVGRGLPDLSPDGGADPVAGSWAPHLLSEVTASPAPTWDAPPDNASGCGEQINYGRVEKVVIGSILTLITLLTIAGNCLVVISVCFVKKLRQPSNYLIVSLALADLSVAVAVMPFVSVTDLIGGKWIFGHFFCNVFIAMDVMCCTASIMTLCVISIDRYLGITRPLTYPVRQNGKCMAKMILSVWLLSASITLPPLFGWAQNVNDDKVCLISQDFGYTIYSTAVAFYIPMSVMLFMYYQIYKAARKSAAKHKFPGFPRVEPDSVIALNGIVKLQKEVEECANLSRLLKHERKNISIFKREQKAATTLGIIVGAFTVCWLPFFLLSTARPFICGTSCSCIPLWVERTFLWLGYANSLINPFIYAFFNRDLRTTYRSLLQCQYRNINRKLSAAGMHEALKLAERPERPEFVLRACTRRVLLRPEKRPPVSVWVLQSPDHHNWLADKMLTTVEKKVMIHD
Sequence of D(1A) dopamine receptor (P21728 whole entry): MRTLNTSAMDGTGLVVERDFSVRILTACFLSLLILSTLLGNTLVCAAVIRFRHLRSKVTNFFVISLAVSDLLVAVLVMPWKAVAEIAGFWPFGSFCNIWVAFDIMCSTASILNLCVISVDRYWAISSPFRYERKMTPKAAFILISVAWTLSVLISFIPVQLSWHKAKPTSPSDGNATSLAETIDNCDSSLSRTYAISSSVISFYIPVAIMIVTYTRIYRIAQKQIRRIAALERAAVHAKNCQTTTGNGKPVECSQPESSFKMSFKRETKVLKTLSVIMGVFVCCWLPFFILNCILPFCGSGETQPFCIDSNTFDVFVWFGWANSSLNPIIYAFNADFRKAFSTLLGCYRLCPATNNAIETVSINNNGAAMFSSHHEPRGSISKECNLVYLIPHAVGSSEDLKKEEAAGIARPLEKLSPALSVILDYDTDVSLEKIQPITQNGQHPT
Sequence of Estrogen receptor beta (Q92731 whole entry): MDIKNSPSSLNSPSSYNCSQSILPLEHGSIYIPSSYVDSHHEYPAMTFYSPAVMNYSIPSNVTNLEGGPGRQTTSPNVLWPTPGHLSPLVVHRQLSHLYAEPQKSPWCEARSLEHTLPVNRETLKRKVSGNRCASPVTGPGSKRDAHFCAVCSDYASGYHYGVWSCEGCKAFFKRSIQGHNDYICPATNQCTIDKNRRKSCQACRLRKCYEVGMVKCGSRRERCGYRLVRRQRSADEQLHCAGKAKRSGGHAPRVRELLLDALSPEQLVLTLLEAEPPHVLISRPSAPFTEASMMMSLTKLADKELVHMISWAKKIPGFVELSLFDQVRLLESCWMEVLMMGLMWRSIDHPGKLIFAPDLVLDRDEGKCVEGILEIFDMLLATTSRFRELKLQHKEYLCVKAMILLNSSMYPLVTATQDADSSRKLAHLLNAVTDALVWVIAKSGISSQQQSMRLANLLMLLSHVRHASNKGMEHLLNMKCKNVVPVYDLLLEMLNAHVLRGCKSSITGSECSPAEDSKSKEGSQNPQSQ
Sequence of Gamma-aminobutyric acid type B receptor subunit 1 (Q9UBS5 whole entry): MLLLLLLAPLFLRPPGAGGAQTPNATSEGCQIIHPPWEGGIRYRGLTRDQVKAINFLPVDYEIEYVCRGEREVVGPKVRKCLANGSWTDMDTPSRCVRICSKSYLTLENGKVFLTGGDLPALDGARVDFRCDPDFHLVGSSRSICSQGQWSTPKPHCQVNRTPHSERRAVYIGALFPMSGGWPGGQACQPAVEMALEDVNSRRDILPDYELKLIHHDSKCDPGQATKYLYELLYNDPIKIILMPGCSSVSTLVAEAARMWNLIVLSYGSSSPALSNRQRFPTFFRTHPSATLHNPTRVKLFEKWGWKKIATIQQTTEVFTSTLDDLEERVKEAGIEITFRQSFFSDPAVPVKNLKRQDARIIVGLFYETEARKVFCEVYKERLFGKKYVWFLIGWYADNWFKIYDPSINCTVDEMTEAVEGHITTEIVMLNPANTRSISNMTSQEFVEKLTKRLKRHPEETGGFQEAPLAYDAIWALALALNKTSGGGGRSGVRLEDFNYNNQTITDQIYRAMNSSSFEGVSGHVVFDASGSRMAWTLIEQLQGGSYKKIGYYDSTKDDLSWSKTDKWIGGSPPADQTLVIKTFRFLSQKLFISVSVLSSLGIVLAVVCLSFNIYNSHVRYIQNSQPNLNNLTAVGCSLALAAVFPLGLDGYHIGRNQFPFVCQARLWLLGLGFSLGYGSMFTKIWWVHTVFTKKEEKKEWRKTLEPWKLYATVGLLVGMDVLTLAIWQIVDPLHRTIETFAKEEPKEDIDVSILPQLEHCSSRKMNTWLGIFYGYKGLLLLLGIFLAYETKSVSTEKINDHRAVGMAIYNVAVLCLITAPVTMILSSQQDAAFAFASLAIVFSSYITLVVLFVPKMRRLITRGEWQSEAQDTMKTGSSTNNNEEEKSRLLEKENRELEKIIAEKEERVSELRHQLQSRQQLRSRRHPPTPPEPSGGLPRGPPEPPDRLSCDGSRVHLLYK

CC(C)c1nc(N(C)S(C)(=O)=O)nc(-c2ccc(F)cc2)c1/C=C/[C@@H](O)C[C@@H](O)CC(=O)O [ROSUVASTATIN]
AC50 [1]: > 30 µM
AC50 [2]: > 30 µM
AC50 [3]: > 30 µM
AC50 [4]: > 30 µM
AC50 [5]: > 30 µM
AC50 [6]: > 30 µM
AC50 [7]: > 30 µM

OC[C@H]1O[C@@](CO)(O[C@H]2O[C@H](CO)[C@@H](O)[C@H](O)[C@H]2O)[C@@H](O)[C@@H]1O [SUCROSE]
AC50 [1]: > 30 µM
AC50 [2]: > 30 µM
AC50 [8]: > 30 µM
AC50 [4]: > 30 µM
AC50 [9]: > 30 µM
AC50 [10]: > 30 µM

CC(C)(O)CNc1nc(Nc2ccnc(C(F)(F)F)c2)nc(-c2cccc(C(F)(F)F)n2)n1 [ENASIDENIB]
AC50 [8]: > 30 µM
AC50 [9]: > 30 µM
AC50 [10]: > 30 µM

CCN(CC)CCNC(=O)c1c(C)[nH]c(/C=C2\C(=O)Nc3ccc(F)cc32)c1C [SUNITINIB]
AC50 [5]: > 10 µM
AC50 [11]: > 30 µM
AC50 [12]: 2.39 µM

CC(C)Cc1ccc(C(C)C(=O)O)cc1 (stereo unspecified) [IBUPROFEN]
AC50 [13]: > 10 µM
AC50 [14]: > 30 µM
AC50 [15]: > 10 µM
AC50 [5]: > 30 µM
AC50 [11]: > 10 µM
AC50 [16]: > 10 µM
AC50 [7]: > 30 µM
AC50 [12]: > 10 µM

C#C[C@]1(O)CC[C@H]2[C@@H]3CCC4=CC(=O)CC[C@@H]4[C@H]3C(=C)C[C@@]21CC [ETONOGESTREL]
AC50 [1]: > 30 µM
AC50 [8]: > 30 µM
AC50 [9]: > 30 µM
AC50 [10]: > 30 µM

CN1C[C@H](C(=O)N[C@]2(C)O[C@@]3(O)[C@@H]4CCCN4C(=O)[C@H](Cc4ccccc4)N3C2=O)C=C2c3cccc4[nH]cc(c34)C[C@H]21 [ERGOTAMINE]
AC50 [3]: > 30 µM
AC50 [5]: > 30 µM
AC50 [6]: > 30 µM
AC50 [7]: > 30 µM

C=CC[C@@H]1/C=C(\C)C[C@H](C)C[C@H](OC)[C@H]2O[C@@](O)(C(=O)C(=O)N3CCCC[C@H]3C(=O)O[C@H](/C(C)=C/[C@@H]3CC[C@@H](O)[C@H](OC)C3)[C@H](C)[C@@H](O)CC1=O)[C@H](C)C[C@@H]2OC [TACROLIMUS ANHYDROUS]
AC50 [13]: > 10 µM
AC50 [3]: > 30 µM
AC50 [14]: > 30 µM
AC50 [15]: > 10 µM
AC50 [5]: > 30 µM
AC50 [11]: > 10 µM
AC50 [16]: > 10 µM
AC50 [6]: > 30 µM
AC50 [7]: > 30 µM
AC50 [12]: > 10 µM

C[C@H](CCC(=O)O)[C@H]1CC[C@H]2[C@@H]3[C@@H](O)C[C@@H]4C[C@H](O)CC[C@]4(C)[C@H]3CC[C@]12C [URSODIOL]
AC50 [1]: > 30 µM
AC50 [3]: > 30 µM
AC50 [6]: > 30 µM

N[C@@H](CC(=O)N1CCn2c(nnc2C(F)(F)F)C1)Cc1cc(F)c(F)cc1F [SITAGLIPTIN]
AC50 [1]: > 30 µM
AC50 [13]: > 10 µM
AC50 [3]: > 30 µM
AC50 [15]: > 10 µM
AC50 [5]: > 30 µM
AC50 [11]: > 10 µM
AC50 [16]: > 10 µM
AC50 [6]: > 30 µM
AC50 [7]: > 30 µM
AC50 [12]: > 10 µM

CC(C(=O)O)c1ccc2c(c1)[nH]c1ccc(Cl)cc12 (stereo unspecified) [CARPROFEN]
AC50 [1]: > 10 µM
AC50 [5]: > 30 µM
AC50 [7]: > 30 µM

CC[C@@]1(O)C(=O)OCc2c1cc1n(c2=O)Cc2cc3c([N+](=O)[O-])cccc3nc2-1 [RUBITECAN]
AC50 [8]: > 30 µM
AC50 [9]: > 30 µM
AC50 [10]: > 30 µM

COc1cc2nccc(Oc3ccc(NC(=O)C4(C(=O)Nc5ccc(F)cc5)CC4)cc3)c2cc1OC [CABOZANTINIB]
AC50 [1]: > 30 µM
AC50 [3]: > 10 µM
AC50 [5]: > 30 µM
AC50 [6]: > 30 µM
AC50 [7]: > 30 µM

FC(F)(F)c1ccc(CNc2ccc(Cc3c[nH]c4ncc(Cl)cc34)cn2)cn1 [PEXIDARTINIB]
AC50 [8]: 1.31 µM
AC50 [9]: 5.53 µM
AC50 [10]: 0.3 µM

CN(CC1(C)CCCO1)S(=O)(=O)c1ccc(Cl)c(S(N)(=O)=O)c1 (stereo unspecified) [MEFRUSIDE]
AC50 [1]: > 30 µM
AC50 [8]: > 30 µM
AC50 [9]: > 30 µM
AC50 [10]: > 30 µM

CCOC(=O)c1c(C)cc2c(CO)n[nH]c(=O)c2c1C [OXAGRELATE]
AC50 [8]: > 30 µM
AC50 [9]: > 30 µM
AC50 [10]: > 30 µM

CCN1CCN(Cc2ccc(Nc3ncc(F)c(-c4cc(F)c5nc(C)n(C(C)C)c5c4)n3)nc2)CC1 [ABEMACICLIB]
AC50 [1]: > 30 µM
AC50 [3]: > 30 µM
AC50 [5]: > 30 µM
AC50 [6]: > 30 µM
AC50 [7]: > 30 µM

COc1ccccc1Oc1c(NS(=O)(=O)c2ccc(C(C)(C)C)cc2)nc(-c2ncccn2)nc1OCCO [BOSENTAN]
AC50 [1]: > 10 µM
AC50 [2]: > 30 µM
AC50 [14]: > 30 µM
AC50 [4]: > 30 µM
AC50 [5]: > 30 µM
AC50 [16]: > 10 µM
AC50 [7]: > 30 µM

C[C@@H](Oc1cc(-c2cnn(C3CCNCC3)c2)cnc1N)c1c(Cl)ccc(F)c1Cl [CRIZOTINIB]
AC50 [1]: > 30 µM
AC50 [3]: > 30 µM
AC50 [5]: > 30 µM
AC50 [6]: > 30 µM
AC50 [7]: > 30 µM
